# Measurements published in patent US9403872B2 (priority 1999, dated 2016).
# System: human fibrosarcoma HT1080 cells
# Assay type: cell-based
compound,measurement,value
"CNC(=O)[C@@H](NC(=O)[C@H](CC(C)C)[C@H](O)C(=O)NO)C(C)(C)C [BB-2516, Marimastat]",protection of HT1080 cells against WT-PA plus FP59,did not protect
CNC(=O)[C@H](Cc1c[nH]c2ccccc12)NC(=O)[C@@H](CC(=O)NO)CC(C)C [GM6001],protection of HT1080 cells against WT-PA plus FP59,did not protect
